Measurements from patent US20090275583A1, “ANTIVIRAL COMPOUNDS AND USE THEREOF” (Myriad Genetics, Incorporated, priority 2006, published 2009).

Test system: HIV-1NL4-3
Assay: P4-MAGI assay
Format: cell-based
Settings: Human immunodeficiency virus 1, 24 h, P4 cells, 24 hour incubation, β-galactosidase expression; read-out: P4-MAGI IC50
Excerpt: P4 cells were used to test the effects of compounds on virus fusion activity. P4 cells are HIV-1 infectable CD4^+ HeLa cells that bear the bacterial lacZ gene under the control of a minimal HIV-1 LTR. Charneau, et. al., J. Mol. Biol. 241:651-662 (1994). When these cells are infected with HIV-1, β-galactosidase is expressed due to Tat activation of the viral LTR. In this assay, P4 cells were infected with the laboratory adapted strain HIV-1NL4-3 at a multiplicity of infection of 1 in the presence of DEAE-Dextran. Immediately after addition of virus to the cells, increasing concentrations of compound were added to the cells. […] The effect on cell viability (TC50, concentration of compound that inhibits growth by 50%) was determined in mock-infected cells with the WST-1 Cell Proliferation Reagent (Roche Diagnostics).

Compound	IC50 [nM]
CC(O)(CO)[C@@H]1CC[C@]2(C(=O)NCc3cccc(C(=O)NCCCCC(=O)O)c3)CC[C@]3(C)C(CCC4[C@@]5(C)CC[C@H](O)C(C)(C)C5CC[C@]43C)C12 (single isomer, unassigned) [Example 139]	1500
C=C(C)[C@@H]1CC[C@]2(C(=O)NCc3cccc(C(=O)NCc4ccccc4C(=O)O)c3)CC[C@]3(C)C(CCC4[C@@]5(C)CC[C@H](O)C(C)(C)C5CC[C@]43C)C12 (stereo partly shown) [Example 8]	875
C=C(C)[C@@H]1CC[C@]2(C(=O)NCc3cccc(C(=O)NCCc4cccc(C(=O)O)c4)c3)CC[C@]3(C)C(CCC4[C@@]5(C)CC[C@H](O)C(C)(C)C5CC[C@]43C)C12 (stereo partly shown) [Example 11]	55
C=C(C)[C@@H]1CC[C@]2(C(=O)NCc3cccc(C(=O)Nc4ccc(O)c(C(=O)O)c4)c3)CC[C@]3(C)C(CCC4[C@@]5(C)CC[C@H](O)C(C)(C)C5CC[C@]43C)C12 (stereo partly shown) [Example 12]	7200
C=C(C)[C@@H]1CC[C@]2(C(=O)NCc3cccc(C(=O)Nc4ccc(C(=O)O)cc4)c3)CC[C@]3(C)C(CCC4[C@@]5(C)CC[C@H](O)C(C)(C)C5CC[C@]43C)C12 (stereo partly shown) [Example 14]	1800
C=C(C)[C@@H]1CC[C@]2(C(=O)NCc3cccc(C(=O)Nc4cccc(C(=O)O)c4)c3)CC[C@]3(C)C(CCC4[C@@]5(C)CC[C@H](O)C(C)(C)C5CC[C@]43C)C12 (stereo partly shown) [Example 15]	320
C=C(C)[C@@H]1CC[C@]2(C(=O)NCc3cccc(C(=O)NC4(Cc5ccc(C(=O)O)cc5)CC4)c3)CC[C@]3(C)C(CCC4[C@@]5(C)CC[C@H](O)C(C)(C)C5CC[C@]43C)C12 (stereo partly shown) [Example 28]	1200
C=C(C)[C@@H]1CC[C@]2(C(=O)NCc3cccc(C(=O)NCc4cccc(Br)c4)c3)CC[C@]3(C)C(CCC4[C@@]5(C)CC[C@H](O)C(C)(C)C5CC[C@]43C)C12 (stereo partly shown) [Example 30]	410
C=C(C)[C@@H]1CC[C@]2(C(=O)NCc3cccc(C(=O)NCc4cc(C(=O)O)ccn4)c3)CC[C@]3(C)C(CCC4[C@@]5(C)CC[C@H](O)C(C)(C)C5CC[C@]43C)C12 (stereo partly shown) [Example 31]	573
C=C(C)[C@@H]1CC[C@]2(C(=O)NCc3cccc(C(=O)NCCc4cc(OC)cc(OC)c4)c3)CC[C@]3(C)C(CCC4[C@@]5(C)CC[C@H](O)C(C)(C)C5CC[C@]43C)C12 (stereo partly shown) [Example 44]	52
C=C(C)[C@@H]1CC[C@]2(C(=O)NCc3cccc(C(=O)NCc4ccc(OC)cc4OC)c3)CC[C@]3(C)C(CCC4[C@@]5(C)CC[C@H](O)C(C)(C)C5CC[C@]43C)C12 (stereo partly shown) [Example 46]	59
C=C(C)[C@@H]1CC[C@]2(C(=O)NCCc3ccccc3C(=O)NCCCCC(=O)O)CC[C@]3(C)C(CCC4[C@@]5(C)CC[C@H](O)C(C)(C)C5CC[C@]43C)C12 (stereo partly shown) [Example 54]	3400
C=C(C)[C@@H]1CC[C@]2(C(=O)NCCc3ccccc3C(=O)NCCCCCCC(=O)O)CC[C@]3(C)C(CCC4[C@@]5(C)CC[C@H](O)C(C)(C)C5CC[C@]43C)C12 (stereo partly shown) [Example 55]	4700
C=C(C)[C@@H]1CC[C@]2(C(=O)NCCc3cccc(C(=O)NCC(=O)O)c3)CC[C@]3(C)C(CCC4[C@@]5(C)CC[C@H](O)C(C)(C)C5CC[C@]43C)C12 (stereo partly shown) [Example 64]	220
C=C(C)[C@@H]1CC[C@]2(C(=O)NCCc3cccc(C(=O)NCC(=O)NC)c3)CC[C@]3(C)C(CCC4[C@@]5(C)CC[C@H](O)C(C)(C)C5CC[C@]43C)C12 (stereo partly shown) [Example 71]	2700
C=C(C)[C@@H]1CC[C@]2(C(=O)NCCc3cccc(C(=O)N[C@@H](CCC(=O)OC)C(N)=O)c3)CC[C@]3(C)C(CCC4[C@@]5(C)CC[C@H](O)C(C)(C)C5CC[C@]43C)C12 (stereo partly shown) [Example 77]	106
C=C(C)[C@@H]1CC[C@]2(C(=O)NCc3cccc(CNC(=O)c4ccc(C(=O)O)c(C(=O)O)c4)c3)CC[C@]3(C)C(CCC4[C@@]5(C)CC[C@H](O)C(C)(C)C5CC[C@]43C)C12 (stereo partly shown) [Example 78]	7000
C=C(C)[C@@H]1CC[C@]2(C(=O)NCc3cccc(CNC(=O)c4cc(C(=O)O)ccc4C(=O)O)c3)CC[C@]3(C)C(CCC4[C@@]5(C)CC[C@H](O)C(C)(C)C5CC[C@]43C)C12 (stereo partly shown) [Example 79]	412
C=C(C)[C@@H]1CC[C@]2(C(=O)NCc3cccc(C(=O)NCc4cccc(C(=O)O)c4C)c3C)CC[C@]3(C)C(CCC4[C@@]5(C)CC[C@H](O)C(C)(C)C5CC[C@]43C)C12 (stereo partly shown) [Example 81]	6200
C=C(C)[C@@H]1CC[C@]2(C(=O)NCC(C)c3cccc(C(=O)NCc4cccc(C(=O)O)c4)c3)CC[C@]3(C)C(CCC4[C@@]5(C)CC[C@H](O)C(C)(C)C5CC[C@]43C)C12 (stereo partly shown) [Example 82]	150
C=C(C)[C@@H]1CC[C@]2(C(=O)NCC(C)c3cccc(C(=O)NCc4cccc(C(=O)O)c4C)c3)CC[C@]3(C)C(CCC4[C@@]5(C)CC[C@H](O)C(C)(C)C5CC[C@]43C)C12 (stereo partly shown) [Example 83]	270

Compound	IC50 [nM]
C=C(C)[C@@H]1CC[C@]2(C(=O)Nc3cccc(C(=O)NCCc4cccc(C(=O)O)c4)c3)CC[C@]3(C)C(CCC4[C@@]5(C)CC[C@H](O)C(C)(C)C5CC[C@]43C)C12 (stereo partly shown) [Example 85]	10000
C=C(C)[C@@H]1CC[C@]2(C(=O)NCc3cccc(C(=O)O)n3)CC[C@]3(C)C(CCC4[C@@]5(C)CC[C@H](O)C(C)(C)C5CC[C@]43C)C12 (stereo partly shown) [Example 86]	3600
C=C(C)[C@@H]1CC[C@]2(C(=O)NCc3ccc(C(=O)OC)o3)CC[C@]3(C)C(CCC4[C@@]5(C)CC[C@H](O)C(C)(C)C5CC[C@]43C)C12 (stereo partly shown) [Example 87]	1400
C=C(C)[C@@H]1CC[C@]2(C(=O)NCc3ccc(C(=O)O)o3)CC[C@]3(C)C(CCC4[C@@]5(C)CC[C@H](O)C(C)(C)C5CC[C@]43C)C12 (stereo partly shown) [Example 88]	6900
C=C(C)[C@@H]1CC[C@]2(C(=O)NCc3ccc(C(=O)NCc4ccc(C(=O)OC)o4)o3)CC[C@]3(C)C(CCC4[C@@]5(C)CC[C@H](O)C(C)(C)C5CC[C@]43C)C12 (stereo partly shown) [Example 89]	2300
C=C(C)[C@@H]1CC[C@]2(C(=O)NCc3ccc(C(=O)NCc4ccc(C(=O)O)o4)o3)CC[C@]3(C)C(CCC4[C@@]5(C)CC[C@H](O)C(C)(C)C5CC[C@]43C)C12 (stereo partly shown) [Example 90]	6500
C=C(C)[C@@H]1CC[C@]2(C(=O)NCc3cccc(C(=O)NCc4cccc(C(=O)O)n4)n3)CC[C@]3(C)C(CCC4[C@@]5(C)CC[C@H](O)C(C)(C)C5CC[C@]43C)C12 (stereo partly shown) [Example 91]	3900
C=C(C)[C@@H]1CC[C@]2(C(=O)NCc3ccc(F)c(C(=O)NCCc4ccc(C(=O)OC)cc4)c3)CC[C@]3(C)C(CCC4[C@@]5(C)CC[C@H](O)C(C)(C)C5CC[C@]43C)C12 (stereo partly shown) [Example 104]	350
C=C(C)[C@@H]1CC[C@]2(C(=O)NCc3ccc(F)c(C(=O)NCCc4cccc(C(=O)OC)c4)c3)CC[C@]3(C)C(CCC4[C@@]5(C)CC[C@H](O)C(C)(C)C5CC[C@]43C)C12 (stereo partly shown) [Example 106]	1300
C=C(C)[C@@H]1CC[C@]2(C(=O)NCc3ccc(F)c(C(=O)NCc4cccc(C(=O)OC)c4)c3)CC[C@]3(C)C(CCC4[C@@]5(C)CC[C@H](O)C(C)(C)C5CC[C@]43C)C12 (stereo partly shown) [Example 110]	856
C=C(C)[C@@H]1CC[C@]2(C(=O)NCCc3ccc(OCCCCC(=O)O)cc3)CC[C@]3(C)C(CCC4[C@@]5(C)CC[C@H](O)C(C)(C)C5CC[C@]43C)C12 (stereo partly shown) [Example 112]	317
C=C(C)[C@@H]1CC[C@]2(C(=O)NCCc3cccc(OCCCCC(=O)O)c3)CC[C@]3(C)C(CCC4[C@@]5(C)CC[C@H](O)C(C)(C)C5CC[C@]43C)C12 (stereo partly shown) [Example 113]	721
C=C(C)[C@@H]1CC[C@]2(C(=O)N[C@@H](Cc3ccc(OCCCCC(=O)O)cc3)C(=O)O)CC[C@]3(C)C(CCC4[C@@]5(C)CC[C@H](O)C(C)(C)C5CC[C@]43C)C12 (stereo partly shown) [Example 115]	10000
C=C(C)[C@@H]1CC[C@]2(C(=O)N[C@@H](Cc3ccc(OCCN4CCOC4=O)cc3)C(=O)O)CC[C@]3(C)C(CCC4[C@@]5(C)CC[C@H](O)C(C)(C)C5CC[C@]43C)C12 (stereo partly shown) [Example 116]	177
C=C(C)[C@@H]1CC[C@]2(C(=O)NCc3cccc(N4CCN(Cc5cccc(C(=O)O)c5)CC4)c3)CC[C@]3(C)C(CCC4[C@@]5(C)CC[C@H](O)C(C)(C)C5CC[C@]43C)C12 (stereo partly shown) [Example 118]	458
C=C(C)[C@@H]1CC[C@]2(C(=O)NCc3cccc(C(=O)NCc4ccc(OCCC(=O)O)c(C(=O)O)c4)c3)CC[C@]3(C)C(CCC4[C@@]5(C)CC[C@H](O)C(C)(C)C5CC[C@]43C)C12 (stereo partly shown) [Example 119]	1100
C=C(C)[C@@H]1CC[C@]2(C(=O)NCc3cccc(C(=O)NCc4ccc(OCC(=O)O)c(C(=O)O)c4)c3)CC[C@]3(C)C(CCC4[C@@]5(C)CC[C@H](O)C(C)(C)C5CC[C@]43C)C12 (stereo partly shown) [Example 120]	620
C=C(C)[C@@H]1CC[C@]2(C(=O)NCc3cccc(C(=O)NCc4ccc(OCCCN(C)CCN(C)C)c(C(=O)OC)c4)c3)CC[C@]3(C)C(CCC4[C@@]5(C)CC[C@H](O)C(C)(C)C5CC[C@]43C)C12 (stereo partly shown) [Example 122]	265
C=C(C)[C@@H]1CC[C@]2(C(=O)NCc3cccc(-c4nc5cc(C(=O)O)ccc5[nH]4)c3)CC[C@]3(C)C(CCC4[C@@]5(C)CC[C@H](O)C(C)(C)C5CC[C@]43C)C12 (stereo partly shown) [Example 126]	66
C=C(C)[C@@H]1CC[C@]2(C(=O)NCc3cccc(-c4nc(-c5cccc(C(=O)O)c5)no4)c3)CC[C@]3(C)C(CCC4[C@@]5(C)CC[C@H](O)C(C)(C)C5CC[C@]43C)C12 (stereo partly shown) [Example 127]	768

Same assay, conditions: Human immunodeficiency virus 1, text statement, less than about 100 nm; read-out: P4-MAGI assay IC50

Compound	IC50 [nM]
C=C(C)[C@@H]1CC[C@]2(C(=O)NCc3cccc(C(=O)NCCc4cccc(C(=O)O)c4)c3)CC[C@]3(C)C(CCC4[C@@]5(C)CC[C@H](O)C(C)(C)C5CC[C@]43C)C12 (stereo partly shown) [Example 11]	< 100
C=C(C)[C@@H]1CC[C@]2(C(=O)NCc3cccc(C(=O)NCCc4cc(OC)cc(OC)c4)c3)CC[C@]3(C)C(CCC4[C@@]5(C)CC[C@H](O)C(C)(C)C5CC[C@]43C)C12 (stereo partly shown) [Example 44]	< 100
C=C(C)[C@@H]1CC[C@]2(C(=O)NCc3cccc(C(=O)NCc4ccc(OC)cc4OC)c3)CC[C@]3(C)C(CCC4[C@@]5(C)CC[C@H](O)C(C)(C)C5CC[C@]43C)C12 (stereo partly shown) [Example 46]	< 100
C=C(C)[C@@H]1CC[C@]2(C(=O)NCc3cccc(-c4nc5cc(C(=O)O)ccc5[nH]4)c3)CC[C@]3(C)C(CCC4[C@@]5(C)CC[C@H](O)C(C)(C)C5CC[C@]43C)C12 (stereo partly shown) [Example 126]	< 100

Same assay, conditions: P4 cells, 24 hour incubation, β-galactosidase expression; read-out: P4-MAGI IC50

Compound	IC50 [nM]
CC(O)(CO)[C@@H]1CC[C@]2(C(=O)NCc3cccc(C(=O)NCCCCC(=O)O)c3)CC[C@]3(C)C(CCC4[C@@]5(C)CC[C@H](O)C(C)(C)C5CC[C@]43C)C12 (single isomer, unassigned) [Example 140]	1600
